Consider two molecules from patent publication US11154519B2, “Inhibitors and their uses” (MEDICAL RESEARCH COUNCIL, priority 2015, dated 2021).

One data set deals with ATF4. The data set can be described thus: ATF4 immunoblot in cells. Type of data set: cell-based, human. The note with it: 20 μM; 0, 2, 5, 7.5 h, FIG. 13. The procedure:
For immunoblots, HeLa cells (80,000 cells/ml) were plated in 12-well plates 24 hours before each experiment. Immediately after the indicated treatments, cells were lysed in 75 μl Laemmli Buffer, boiled at 95° C. for 5 minutes and sonicated. Proteins were separated and analysed as described (Tsaytler et al., Science, 332, 91-94, 2011) with the following antibodies: phospho-elf2α [pS52] and PPP1R15A/GADD34 (10449-1-AP; ProteinTech Group, 1/1000 dilution) and ATF4 (Sc-200 Santa Cruz).
Translation can be inhibited at many levels. To ensure that the R15A and B inhibitors are on-target, we monitor the levels of ATF4 in cells treated with compounds. A R15A/B inhibitor persistently induce eIF2α phosphorylation and eIF2α phosphorylation results in ATF4 translation. We show here that an A/B inhibitor indeed induces ATF4, confirming target engagement in cells.

Data set [1] can be described thus: Toxicity in mice (clinical signs, weight). Type of data set: in vivo. More on the design: clinical signs: dose or concentration left out as unconfirmed. The note with it: 2 weeks, oral. As for the experimental part:
For studying the effect of a compound of Example 1 on weight, C3H/B6 mice were gavaged orally once a day with compounds of Example 1 and mice weight was recorded daily for 2 weeks.
Mice were treated with Example 1 and monitored closely to detect any clinical signs. […] This establishes that PPP1R15B inhibition is not toxic. This was surprising and unanticipated as prior to this study one would have speculated that PPP1R15B inhibitors would be so deleterious that they would have no therapeutic potential.

The test system of data set [2] is dorsal root ganglia culture (DRG) from PMP22 mutant mice. Kind of data set: Myelination in DRG explants from neuropathic mice. The note with it: 5 nM, 14 days. It is filed as cell-based. The procedure:
Dorsal root ganglia (DRG) dissected from wild-type or Pmp22Tr-J (PMP22mutant) (Henry et al., Neuropathol. Exp. Neurol., 42, 688-706, 1983) embryo at 13.5 or […] (E13.5) were cultured on collagen coated coverslips in neurobasal media supplemented with 4 g/l glucose, 2 mM L-glutamine, 2% B27 supplement and 50 ng/ml neuronal growth factor (NGF) for 7 days. To differentiate Schwann cells and induce myelination, the cultured DRGs were then maintained in C-media (MEM media supplemented with 4 g/I glucose, 2 mM L-glutamine, 10% FCS, 50 ng/ml NGF). The C-media was replaced every other day with freshly added 50 μg/ml ascorbic acid ±5 nM of compound of Example I and cultured for 14 days for myelination by the Schwann cells. The cultured DRGs were then fixed in 4% paraformaldehyde and immunostained with MBP (Rat Myelin basic protein, 1/250 dilution, ab73498).
CMT is a group of myelin neuropathies caused by mutations in a number of genes. Mutations in the peripheral myelin protein PMP22 are the most common causes of CMT. A mutation in PMP22 (Trembler-J) causes the misfolding of PMP22 and a disease in mice that resembles CMT in human due to defects in myelin in the peripheral nervous system. Explants from PM P22 mutant mice recapitulates the severe hypomyelination observed in the human diseases. […] The compound of Example 1 will also be useful in the treatment of other myelin disorders.

A further data set relates to Db/db animals. Kind of data set: Blood glucose in obese db/db mice. It is filed as in vivo. The note with it: 1 mg/kg once a day, three weeks. The procedure: For treatment of a metabolic disorder, Db/db animals (n=5 per condition) were treated once a day with 1 mg/kg of compound of Example 1 for three weeks. Blood glucose levels were measured with a blood glucose meter (DSI) between 9 and 10 am. Data are mean+/−S.e.m.
It is known that metabolic diseases such as diabetes, obesity, fatty liver disease, and atherosclerosis are associated with pathological ER stress and it is believed that pharmacological modulators of the UPR may have therapeutic benefit. As there were no PPP1R15B inhibitors available prior to this study it was unclear whether PPP1R15B could be a therapeutic target in metabolic diseases. […] Having shown in one disease model that treatment with a compound of Example 1 is beneficial, it is evident that the compounds of the invention will be beneficial to other mammalian metabolic disorders such as diabetes, obesity, fatty liver disease, and atherosclerosis.

A further data set deals with mice. Kind of data set: Side effects of Guanabenz: activity of mice after dosing. It is filed as in vivo. The note with it: 10 mg/kg oral gavage. The procedure: To assess whether of a compound of Example 1 had the side effects of Guanabenz, mice (n>3) were gavaged orally with 10 mg/kg of compound or Guanabenz. Their activity was monitored 30 minutes following dosing.
In humans, the adrenergic agonist activity of Guanabenz has side effects including drowsiness and coma at high doses (A. H. Hall, Ann Intern Med 102; 787-788; 1985). Due to of these side effects, Guanabenz is no longer used in human. It is anticipated that Guanabenz derivatives have the side effects of Guanabenz, associated with alpha-2 adrenergic activity.

For a further data set, the system named is PPP1R15A. The data set can be described thus: Assay 6: PPP1R15A induction in mouse brain (qPCR). The settings on record: mice, dose-dependent. Type of data set: in vivo. The procedure: RNA from brain was extracted in trizol (Life Technologies). RNA concentration was measured using a NANODROP1000 spectrophotometer (Thermo Fisher Scientific), and 1 μg was reverse transcribed to cDNA using a SuperScript reverse transcriptase (Life Technologies). Quantitative PCR with primers GAPDH (f): […], GAPDH (r): […], PPP1R15A (f): […]; and PPP1R15A (r): […] was performed using SYBR® Select Master Mix (Ref 4472908, applied biosystems) on a Corbett Rotor-Gene version 6000. Expression of each gene was normalized to the housekeeping gene GAPDH and expressed as fold change calculated using Paffl equation.
PPP1R15A induction was assessed by qPCR on total mRNA extracted from brains of mice treated with the indicated doses of compound of Example 1.
This explains why a selective PPP1R15B inhibitor is tolerated in mice: PPP1R15A induction dephosphorylates eIF2α, ensuring that the eIF2α phosphorylation which results from PPP1R15B inhibition by a compound of Example 1 is only transient. This is important because a persistent phosphorylation of eIF2α is detrimental. The induction of PPP1R15A in vivo by a PPP1R15B inhibitor is a pharmacodynamic parameter that can be used to evaluate the efficacy and potency of PPP1R15B inhibitors in mammals in pre-clinical or clinical studies.
(In qPCR the cycle at which signal appears reflects the starting amount.)

Consider `[H]/N=C(\N)NN=Cc1cc(Cl)cc(Cl)c1Cl` [Compound 10, (E)-2-(2,3,5-trichlorobenzylidene)hydrazine-1-carboximidamide], for which the “expression of ATF4 (immunoblot)” value with ATF4 is on record as “induces expression of ATF4”.
Regarding `[H]/N=C(\N)NN=Cc1cccc(Cl)c1Cl` [Compound 16, (E)-2-(2,3-dichlorobenzylidene)hydrazine-1-carboximidamide], in data set [1], the clinical signs entry was “undistinguishable from mice treated with placebo”. Further, the weight gain result in data set [1] (up to 10 mg/mg once a day) is given as “gained weight normally”. Moreover, in data set [2], the “length of myelin internodes” value is reported as “increased the length of myelin internodes in mutant DRG”. In the data set on Db/db animals, the blood glucose entry was “reduced the pathological high blood glucose”. Besides, the “activity of mice 30 minutes following dosing” value with mice was “as active as untreated mice”. The “PPP1R15A induction (mRNA, brain)” value in the data set with PPP1R15A is “induced PPP1R15A”.
